Holding throughout (experiment): inhibition of tumour cell growth, NCI panel, 48 h
Assay [1] relates to SN12C.
The subject of assay [2] is UACC-257.
Assay [3] has as its system SF-295.
Assay [4] concerns DU-145.
In assay [5] the test system is U-251.
Assay [6] concerns BT-549.
Assay [7] has as its system RPMI-8226.
Assay [8] concerns MOLT-4.
The subject of assay [9] is MDA-N.
In assay [10] the test system is HCC 2998.
The test system of assay [11] is SK-MEL-5.
In assay [12] the test system is OVCAR-8.
Assay [13] deals with CAKI-1.
Assay [14] has as its system NCI/ADR-RES.
The subject of assay [15] is SF-539.
For assay [16], the system named is NCI-H226.
The subject of assay [17] is A549.
Assay [18] concerns NCI-H522.
In assay [19] the test system is SK-OV-3.
The test system of assay [20] is HL-60.

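48-hour exposure; five concentrations; linearly interpolated endpoints. Here, GI50 denotes the concentration required for 50% inhibition of growth.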 The source made the active and inactive calls. Rule as the data show it: active = GI50 up to about 1.1 µM and inactive = higher. Some results are limits rather than exact numbers.

For the compound `CC(=O)OC1CCC2(C)C(CCC3C2CC(=O)C2(C)C3CC(N3CC3)C2C(C)=O)C1` (stereo unspecified), the GI50 in assay [1] is 21.9 µM (inactive); in [2] it was 17.3 µM (inactive); in assay [3], 5.71 µM (inactive); in assay [4], 32.6 µM (inactive); in assay [5] it was 17.2 µM (inactive); in assay [6] it was 17.4 µM (inactive). The GI50 in [7] was 18 µM (inactive); in assay [8], 2.11 µM (inactive); in assay [9] it was 21.8 µM (inactive); in [10] it was 15.4 µM (inactive); in assay [11] it was 15.2 µM (inactive); in assay [12], 14 µM (inactive). Moreover, the GI50 in assay [13] is 16.1 µM (inactive); in assay [14] it was 24.6 µM (inactive); in [15] it was 11.8 µM (inactive); in assay [16] it was 19.1 µM (inactive); in [17] it was 27.4 µM (inactive); in [18], 12.2 µM (inactive).

For the compound `O=C1/C(=C/c2cccc3ccccc23)CCc2ccc([N+](=O)[O-])cc21`, the GI50 in assay [1] was 28.4 µM (inactive); in [3], 11.9 µM (inactive); in [4] it was 51.6 µM (inactive); in assay [5] it was 14.1 µM (inactive); in assay [6] it was 16.1 µM (inactive); in assay [7] it was 11.8 µM (inactive). In addition, the GI50 is > 100 µM (inactive) in assay [8]; 8.81 µM (inactive) in [9]; 83.8 µM (inactive) in [10]; 37.3 µM (inactive) in assay [12]; 24.8 µM (inactive) in assay [13]; 16.3 µM (inactive) in [14]. Moreover, the GI50 in [19] is 21.6 µM (inactive); in assay [15], 21.5 µM (inactive); in assay [16], 27.6 µM (inactive); in assay [17] it was 22.8 µM (inactive); in assay [20], 8.83 µM (inactive).

As for `Cc1nn(C(=O)c2ccccc2O)c2c1C(c1ccc3ccccc3c1O)SC(=N)N2` (stereo unspecified), the GI50 in [1] was 6.58 µM (inactive); in assay [2] it was 3.53 µM (inactive); in [3], > 10 µM (inactive); in [5], 3.66 µM (inactive); in [6] it was > 10 µM (inactive); in assay [7] it was 4.34 µM (inactive). For the same compound, the GI50 was 2.98 µM (inactive) in assay [8]; 3.44 µM (inactive) in assay [9]; 1.63 µM (inactive) in assay [11]; 5.11 µM (inactive) in [12]; 3.52 µM (inactive) in [13]; 6.3 µM (inactive) in assay [19]. Besides, the GI50 in [15] was 4.53 µM (inactive); in assay [16] it was 2.65 µM (inactive); in assay [17], 4.91 µM (inactive).

For `CC(=O)Nc1ccc(NNc2cc(=O)n(C)c(=O)[nH]2)cc1`, the GI50 was 10.1 µM (inactive) in assay [1]; 13.5 µM (inactive) in assay [2]; 15.8 µM (inactive) in assay [3]; 16 µM (inactive) in assay [4]; 11.7 µM (inactive) in assay [5]; 13.1 µM (inactive) in assay [6]. In addition, the GI50 was 2.84 µM (inactive) in [7]; 34.8 µM (inactive) in assay [8]; 11 µM (inactive) in assay [9]; 11.4 µM (inactive) in [10]; 16.7 µM (inactive) in assay [11]; 15.9 µM (inactive) in assay [12]. For the same compound, the GI50 in assay [14] was 16.7 µM (inactive); in assay [15], 9.73 µM (inactive); in assay [16], 22.4 µM (inactive); in assay [17], 19 µM (inactive); in [20] it was 2.95 µM (inactive).

Take `CCN(CC)c1ccc2cc(-c3csc(C)n3)c(=O)oc2c1`: the GI50 in assay [1] was > 100 µM (inactive); in [2] it was 77.8 µM (inactive); in assay [3], 47 µM (inactive); in assay [4] it was > 100 µM (inactive); in assay [5], 57.7 µM (inactive); in assay [6], 28.2 µM (inactive). Besides, the GI50 in [7] is > 100 µM (inactive); in assay [8], > 100 µM (inactive); in [9] it was 0.719 µM (active); in [10], 58.5 µM (inactive); in assay [11], 37.9 µM (inactive); in assay [13], > 100 µM (inactive). For the same compound, the GI50 in assay [19] was > 100 µM (inactive); in [15] it was 77.3 µM (inactive); in [16], 57.4 µM (inactive); in [17] it was > 100 µM (inactive); in assay [20], 95.3 µM (inactive).

With `Cc1cccnc1N/C=C1\C(=O)NC(=O)N(C)C1=O`, the GI50 in assay [1], in assay [2], in assay [3], in assay [4], in assay [5] and in assay [6] was > 100 µM (inactive) in each case. The GI50 in [8], in [9], in assay [11], in [12], in assay [13] and in [19] was > 100 µM (inactive) in each case. Moreover, the GI50 was > 100 µM (inactive) in assay [15]; > 100 µM (inactive) in assay [16]; > 100 µM (inactive) in assay [17]; > 100 µM (inactive) in assay [20]; 1.69 µM (inactive) in assay [18].

For the compound `Cc1cc(Cc2cc(C)c(NC(=O)C(=O)C3CCC4=C(SC5C=CC=CC5N4)C3=O)c(C(C)C)c2)cc(C(C)C)c1NC(=O)C(=O)C1CCC2=C(SC3C=CC=CC3N2)C1=O` (stereo unspecified), the GI50 in [1] is 84.1 µM (inactive); in [2] it was > 100 µM (inactive); in assay [3], 69.7 µM (inactive); in [4], > 100 µM (inactive); in assay [5] it was 50.1 µM (inactive); in assay [6] it was 38.4 µM (inactive). Further, the GI50 in assay [7] is 37.4 µM (inactive); in assay [8] it was 32.2 µM (inactive); in assay [10], 30.5 µM (inactive); in assay [11], 35.8 µM (inactive); in assay [12], 29.7 µM (inactive); in assay [13] it was 53.6 µM (inactive). For the same compound, the GI50 in assay [14] is 35.5 µM (inactive); in assay [19] it was > 100 µM (inactive); in assay [15] it was 12.5 µM (inactive); in assay [16] it was 31 µM (inactive); in assay [17] it was 64 µM (inactive); in [20] it was 40.6 µM (inactive). Besides, in assay [18], the GI50 was 19.9 µM (inactive).

As for `CC(=O)Nc1ccc(NC(=O)c2c(Cl)c(Cl)c(Cl)c(Cl)c2-c2nc3ccccc3[nH]2)cc1`, the GI50 in assay [1] was 35.4 µM (inactive); in assay [2] it was 40.1 µM (inactive); in assay [3], 38.3 µM (inactive); in assay [4] it was 46.8 µM (inactive); in assay [6], 43.1 µM (inactive); in assay [7], 23 µM (inactive). Moreover, the GI50 is 21.5 µM (inactive) in assay [8]; 35.3 µM (inactive) in assay [9]; 33.6 µM (inactive) in [10]; 28.6 µM (inactive) in [11]; 45.1 µM (inactive) in assay [12]; 38.7 µM (inactive) in [13]. Moreover, the GI50 in [19] was 63.4 µM (inactive); in assay [15] it was 38.5 µM (inactive); in [16], 35.4 µM (inactive); in assay [17], 36.4 µM (inactive); in assay [20], 25.9 µM (inactive); in [18], 36.7 µM (inactive).

With `Cc1ccc(C2SC(=N)Nc3c2c(C)nn3C(=O)c2ccccc2O)cc1` (stereo unspecified), the GI50 in assay [1] is > 10 µM (inactive); in assay [2] it was > 10 µM (inactive); in assay [4], > 10 µM (inactive); in [5], 5.38 µM (inactive); in assay [6], > 10 µM (inactive); in [7], > 10 µM (inactive). Besides, the GI50 is 7.43 µM (inactive) in [8]; 7.14 µM (inactive) in assay [9]; 4.37 µM (inactive) in [11]; > 10 µM (inactive) in [12]; > 10 µM (inactive) in assay [13]; > 10 µM (inactive) in assay [14]. The GI50 in assay [19] was 3.3 µM (inactive); in assay [15], 5.68 µM (inactive); in [16] it was > 10 µM (inactive); in assay [17], 3.16 µM (inactive).

As for `CCNc1nnc(-c2ccccc2Nc2ccccc2-c2nnc(NCC)s2)s1`, the GI50 in assay [1] was 18.9 µM (inactive); in assay [2], 23.6 µM (inactive); in assay [3], 16.3 µM (inactive); in [4], 4.72 µM (inactive); in [5], 11.4 µM (inactive); in assay [6], 19.6 µM (inactive). Moreover, the GI50 is 14 µM (inactive) in assay [7]; 4.35 µM (inactive) in assay [8]; 9.73 µM (inactive) in assay [9]; 11.6 µM (inactive) in assay [10]; 5.52 µM (inactive) in [11]; 13.6 µM (inactive) in assay [12]. For the same compound, the GI50 in assay [13] is 2.85 µM (inactive); in assay [14], 10.5 µM (inactive); in assay [19] it was 9.06 µM (inactive); in assay [16] it was 20.2 µM (inactive); in assay [17] it was 13.5 µM (inactive); in assay [18], 6.75 µM (inactive).

In the case of `O=C(Nc1ccc(Cl)cc1)NS(=O)(=O)c1ccc2c(c1)CCC2` [SULOFENUR], the GI50 in assay [1] is 39.2 µM (inactive); in assay [2], 50.7 µM (inactive); in assay [3], 46.7 µM (inactive); in assay [4], 24 µM (inactive); in [5], 30.7 µM (inactive); in assay [6], 32.6 µM (inactive). The GI50 was 24.4 µM (inactive) in assay [7]; 26.4 µM (inactive) in [8]; 28 µM (inactive) in assay [9]; 31.6 µM (inactive) in assay [10]; 26.9 µM (inactive) in [11]; 40.8 µM (inactive) in assay [12]. For the same compound, the GI50 in assay [13] is 42.9 µM (inactive); in assay [19], 25.8 µM (inactive); in assay [15], 28.3 µM (inactive); in assay [16] it was 37.9 µM (inactive); in assay [17], 32.7 µM (inactive); in assay [20] it was 2.4 µM (inactive). The GI50 in [18] was 27.9 µM (inactive).

The values above are taken from ChEMBL document CHEMBL1201862, “PubChem BioAssay data set” (2004).
